In BindingDB's records for doi:10.1021/jm00394a010 (University of Minnesota, 1987):
Where a SMILES comes first, the peptide text is derived from it. Side-chain parts run from the residue outwards. The star is where a group is joined. X1 = CN1CC[C@]23c4c5ccc(O)c4O[C@H]2[C@@H](N*)CC[C@@]3(O)C1C5

Test: Binding affinity of Opioid receptor delta 1 by the displacement of delta-selective [3H]DSLET from brain membrane preparations.

Compound | Ki
CC(C)C[C@H](NC(=O)[C@H](Cc1ccccc1)NC(=O)CNC(=O)[C@H](CCC(=O)N[C@H]1CC[C@@]2(O)C3Cc4ccc(O)c5c4[C@@]2(CCN3C)[C@H]1O5)NC(=O)[C@@H](N)Cc1ccc(O)cc1)C(=O)O [oxymorphamine- and enkephalin-containing ligand 1] (H-YE(X1)GFL-OH) | 26 nM
CC(=O)N[C@H]1CC[C@@]2(O)C3Cc4ccc(O)c5c4[C@@]2(CCN3C)[C@H]1O5 [N-[(1S,13R,14S,17S)-10,17-dihydroxy-4-methyl-12-oxa-4-azapentacyclo[9.6.1.0^{1,13}.0^{5,17}.0^{7,18}]octadeca-7(18),8,10-trien-14-yl]acetamide] | 163 nM
CC(C)C[C@H](NC(=O)[C@H](Cc1ccccc1)NC(=O)CNC(=O)[C@H](CCC(=O)NCC(=O)NCC(N)=O)NC(=O)[C@@H](N)Cc1ccc(O)cc1)C(=O)O (H-YE([Gly-Gly-NH2])GFL-OH) | 88 nM
H-YQGFL-OH | 47 nM
CC(C)C[C@H](NC(=O)[C@H](Cc1ccccc1)NC(=O)CNC(=O)[C@H](CCC(=O)NCC(=O)NCC(=O)N[C@H]1CC[C@@]2(O)C3Cc4ccc(O)c5c4[C@@]2(CCN3C)[C@H]1O5)NC(=O)[C@@H](N)Cc1ccc(O)cc1)C(=O)O [oxymorphamine- and enkephalin-containing ligand 2] (H-YE([Gly-Gly-X1])GFL-OH) | 51 nM
CC(=O)NCC(=O)NCC(=O)N[C@H]1CC[C@@]2(O)C3Cc4ccc(O)c5c4[C@@]2(CCN3C)[C@H]1O5 [1N-[10,17-dihydroxy-4-methyl-(13R,17S)-12-oxa-4-azapentacyclo[9.6.1.01,13.05,17.07,18]octadeca-7(18),8,10-trien-14-ylcarbamoylmethyl]-2-methylcarboxamidoacetamide] | 181 nM
